This passage reports IC50 and inhibition results from patent publication US20120004244A1, “Bis Aromatic Compounds for Use as LTC4 Synthase Inhibitors” (BIOLIPOX AB, priority 2009, published 2012).

The target of this assay is T1, Recombinant human LTC4 synthase (Homo sapiens, UniProt Q16873).
T1 construct: made in house; host or cells: Pichia pastoris ('Piccia pastoralis' [sic])
T1 sequence (Q16873 1-150): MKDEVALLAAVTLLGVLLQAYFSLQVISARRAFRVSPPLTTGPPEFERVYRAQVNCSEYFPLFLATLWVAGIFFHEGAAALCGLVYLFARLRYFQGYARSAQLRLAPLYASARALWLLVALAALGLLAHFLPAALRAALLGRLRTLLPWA
The assay can be described thus: LTC4 synthase in vitro assay (LTA4 to LTC4, HTRF detection). Format: biochemical. Conditions: for inhibition at 10 µM: 5 min, total concentration of title compound in the assay 10 μM. An outline of the steps: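 Purified recombinant human LTC4 synthase expressed in Pichia (0.5 μg/mL total protein) was preincubated with inhibitor at 10 μM final for 10 min at room temperature in PBS pH 7.4 with 5 mM GSH. LTA4 was then added at 2.5 μM final, and after 5 min at room temperature LTC4 was detected by HTRF.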
For orientation: In TR-FRET formats the signal depends on donor and acceptor labels being close together.

For orientation: IC50 means the concentration that inhibits the measured activity by half. As for `CN(c1ccc(Cl)cc1)c1ccc(C(=O)c2ccc(C(=O)c3cccc(OC(F)(F)F)c3)c(C(=O)O)c2)nc1` [5:28], the IC50 came to 60 nM.
For the compound `CN(c1ccc(Cl)cc1)c1ccc(C(=O)c2ccc(C(=O)c3ccccc3C(F)(F)F)c(C(=O)O)c2)nc1` [5:29], the IC50 was 245 nM.
The inhibition is the drop in the measured response relative to a control, in per cent. In the case of `CN(c1ccc(Cl)cc1)c1ccc(C(=O)c2ccc(Oc3ccccc3)c(C(=O)O)c2)cn1` [6:1], the IC50 is 667 nM and the inhibition at 10 µM amounted to 94%.
Regarding `CN(c1ccc(Cl)cc1)c1ccc(C(=O)c2ccc(Oc3ccc(F)c(F)c3)c(C(=O)O)c2)cn1` [6:2], the IC50 came to 630 nM and the inhibition at 10 µM turned out to be 96%.
Take `O=C(c1ccc(Oc2ccccc2)c(C(=O)O)c1)c1ccc(-c2cccc(Cl)c2)cn1` [7:1, 5-[5-(3-Chlorophenyl)picolinoyl]-2-phenoxybenzoic acid]: the IC50 was found to be 1110 nM.
With `O=C(c1ccc(Oc2ccccc2)c(C(=O)O)c1)c1ccc(-c2ccc(Cl)cc2)cn1` [7:2, 5-[5-(4-Chlorophenyl)picolinoyl]-2-phenoxybenzoic acid], the IC50 is 752 nM.
With `O=C(c1ccc(Oc2ccccc2)c(C(=O)O)c1)c1ccc(-c2cccc(C(F)(F)F)c2)cn1` [7:3, 2-Phenoxy-5-[5-(3-trifluoromethylphenyl)picolinoyl]benzoic acid], the IC50 came out at 700 nM.
On to `O=C(c1ccc(N(CC2CC2)c2ccc(Cl)cc2)cc1)c1cc(C(=O)O)c(Oc2ccccc2)cn1` [8:1, 2-{4-[(4-Chlorophenyl)(cyclopropylmethyl)amino]benzoyl}-5-phenoxyisonicotinic acid], for which the IC50 was 82 nM and the inhibition at 10 µM came to 99%.
As for `CN(c1ccc(Cl)cc1)c1ccc(C(=O)c2cc(C(=O)O)c(Oc3ccccc3)cn2)cc1` [8:2], the half-maximal inhibitory concentration (IC50) is 302 nM and the inhibition at 10 µM was 99%.
The like results for `CN(c1ccc(Cl)cc1)c1ccc(C(=O)c2ccc(Oc3ccccc3)c(C(=O)O)n2)cc1` [9:1, 6-{4-[(4-Chlorophenyl)(methyl)amino]benzoyl}-3-phenoxypicolinic acid] were, in that order, 742 nM and 94%.
Turning to `CN(c1ccc(Cl)cc1)c1ccc(C(=O)c2ccc(Oc3ccc(F)c(F)c3)c(C(=O)O)n2)cc1` [9:2], the IC50 turned out to be 834 nM and the inhibition at 10 µM turned out to be 94%.
Consider `CN(c1ccc(Cl)cc1)c1cnc(C(=O)c2ccc(Oc3ccc(F)cc3)c(C(=O)O)c2)nc1` [10:1, 5-{5-[(4-Chlorophenyl)(methyl)amino]pyrimidine-2-carbonyl}-2-(4-fluorophenoxy)-benzoic acid], for which the IC50 is 154 nM and the inhibition at 10 µM came to 97%.
Turning to `CN(c1ccc(Cl)cc1)c1cnc(C(=O)c2ccc(Oc3ccccc3)c(C(=O)O)c2)nc1` [10:3, 5-{5-[(4-Chlorophenyl)(methyl)amino]pyrimidine-2-carbonyl}-2-phenoxybenzoic acid], the IC50 came out at 300 nM.
In the case of `O=C(c1ccc(Oc2ccccc2)c(C(=O)O)c1)c1ncc(N(CC2CC2)c2ccc(Cl)cc2)cn1` [10:4, 5-{5-[(4-Chlorophenyl)(cyclopropylmethyl)amino]pyrimidine-2-carbonyl}-2-phenoxybenzoic acid], the IC50 was determined as 132 nM.
The same measure, in the same setting: the value for `O=C(c1ccc(Oc2ccccc2)c(C(=O)O)c1)c1ncc(N(Cc2ccccc2)c2ccc(Cl)cc2)cn1` [10:5, 5-{5-[(Benzyl)(4-chlorophenyl)amino]pyrimidine-2-carbonyl}-2-phenoxybenzoic acid] was 119 nM.
The same measure, in the same setting: the value for `O=C(c1ccc(Oc2ccccc2)c(C(=O)O)c1)c1ccc(OCc2cccc(Cl)c2)cn1` [11:1, 5-[5-(3-Chlorobenzyloxy)picolinoyl]-2-phenoxybenzoic acid] was 143 nM; that for `COc1ccc(Oc2ccc(C(=O)c3ccc(OCc4cccc(Cl)c4)cn3)cc2C(=O)O)cc1` [11:2, 5-[5-(3-Chlorobenzyloxy)picolinoyl]-2-(4-methoxyphenoxy)benzoic acid] was 345 nM.
On the same count and under the same terms, the value for `O=C(c1ccc(Oc2ccccc2)c(C(=O)O)c1)c1ccc(OCc2cccc(C(F)(F)F)c2)cn1` [11:5, 2-Phenoxy-5-[5-(3-trifluoromethylbenzyloxy)picolinoyl]benzoic acid] was 181 nM; that for `O=C(c1ccc(Oc2ccccc2)c(C(=O)O)c1)c1ccc(OCc2ccc(C(F)(F)F)cc2)cn1` [11:6, 2-Phenoxy-5-[5-(4-trifluoromethylbenzyloxy)picolinoyl]benzoic acid] was 351 nM.
On to `O=C(c1ccc(Oc2ccccc2)c(C(=O)O)c1)c1ccc(OCc2ccccc2C(F)(F)F)cn1` [11:7, 2-Phenoxy-5-[5-(2-trifluoromethylbenzyloxy)picolinoyl]benzoic acid], for which the IC50 was 931 nM.
Turning to `O=C(c1ccc(Oc2ccccc2)c(C(=O)O)c1)c1ccc(OCc2cccc(Br)c2)cn1` [11:8, 5-[5-(3-Bromobenzyloxy)picolinoyl]-2-phenoxybenzoic acid], the IC50 amounted to 126 nM.
On to `O=C(c1ccc(Oc2ccccc2)c(C(=O)O)c1)c1ccc(OCc2ccc(Cl)c(Cl)c2)cn1` [11:9, 5-[5-(3,4-Dichlorobenzyloxy)picolinoyl]-2-phenoxybenzoic acid], for which the IC50 is 69 nM.
As for `COc1ccc(COc2ccc(C(=O)c3ccc(N(C)c4ccc(Cl)cc4)cn3)cc2C(=O)O)cc1` [12:1, 5-{5-[(4-Chlorophenyl)(methyl)amino]picolinoyl}-2-(4-methoxybenzyloxy)benzoic acid], the IC50 is 380 nM.
As to `CN(c1ccc(Cl)cc1)c1ccc(C(=O)c2ccc(OCc3ccccc3Cl)c(C(=O)O)c2)nc1` [12:2, 2-(2-Chlorobenzyloxy)-5-{5-[(4-chlorophenyl)(methyl)amino]picolinoyl}benzoic acid], the IC50 came out at 184 nM.
With `CN(c1ccc(Cl)cc1)c1ccc(C(=O)c2ccc(OCc3ccc(Cl)cc3)c(C(=O)O)c2)nc1` [12:3, 2-(4-Chlorobenzyloxy)-5-{5-[(4-chlorophenyl)(methyl)amino]picolinoyl}benzoic acid], the IC50 stood at 364 nM.
The same measure, in the same setting: for `CN(c1ccc(Cl)cc1)c1ccc(C(=O)c2ccc(OCc3ccc(F)c(F)c3)c(C(=O)O)c2)nc1` [12:4, 5-{5-[(4-Chlorophenyl)(methyl)amino]picolinoyl}-2-(3,4-difluorobenzyloxy)-benzoic acid] the value was 150 nM; for `CN(c1ccc(Cl)cc1)c1ccc(C(=O)c2ccc(OCc3ccc4c(c3)OCO4)c(C(=O)O)c2)nc1` [12:5, 5-{5-[(4-Chlorophenyl)(methyl)amino]picolinoyl}2-(3,4-methylenedioxy-benzyloxy)benzoic acid], 166 nM.
Take `COc1cccc(COc2ccc(C(=O)c3ccc(N(C)c4ccc(Cl)cc4)cn3)cc2C(=O)O)c1` [12:6, 5-{5-[(4-Chlorophenyl)(methyl)amino]picolinoyl}-2-(3-methoxybenzyloxy)-benzoic acid]: the half-inhibitory concentration (IC50) amounted to 219 nM.
As for `CN(c1ccc(Cl)cc1)c1ccc(C(=O)c2ccc(OCc3ccccc3)c(C(=O)O)c2)nc1` [12:7, 2-Benzyloxy-5-{5-[(4-chlorophenyl)(methyl)amino]picolinoyl}benzoic acid], the IC50 amounted to 375 nM.
For the compound `CN(c1ccc(Cl)cc1)c1ccc(C(=O)c2ccc(-n3nncc3-c3ccccc3)c(C(=O)O)c2)nc1` [17:1, 5-{5-[(4-Chlorophenyl)(methyl)amino]picolinoyl}-2-(5-phenyl-1,2,3-triazol-1-yl)-benzoic acid], the IC50 came to 116 nM and the inhibition at 10 µM is 98%.
